# Measured values as given in BindingDB's records for doi:10.1016/j.bmcl.2012.03.007 (Bristol-Myers Squibb, 2012).
# pIC50: −log10 of the molar value.
# Experiment: Antagonist activity at CCR2 in human PBMC assessed as inhibition of MCP1-induced chemotaxis
row,Compound,pIC50
1,CCC[C@H](O)[C@H](CNCc1ccc(C)cc1C)NC(=O)CNC(=O)c1cc(C(F)(F)F)ccc1NC(=O)N1CCNCC1,8.00
2,CCC[C@H](O)[C@H](CNCc1ccc(C)cc1C)NC(=O)CNC(=O)c1cc(C(F)(F)F)ccc1NC(=O)N1CCOCC1,7.89
3,CCC[C@H](O)[C@H](CNCc1ccc(C)cc1C)NC(=O)CNC(=O)c1cc(C(F)(F)F)ccc1NC(=O)N1CCCC1,8.28
4,CCC[C@H](O)[C@H](CNCc1ccc(C)cc1C)NC(=O)CNc1n[nH]c2ccc(C(F)(F)F)cc12,7.13
5,CCC[C@H](O)[C@H](CNCc1ccc(C)cc1C)NC(=O)CC(=O)Nc1cc(NCC)cc(C(F)(F)F)c1,7.92
6,CCC[C@H](O)[C@H](CNCc1ccc(C)cc1C)NC(=O)CC(=O)Nc1cc(NC)cc(C(F)(F)F)c1,7.64
7,CCC[C@H](O)[C@H](CNCc1ccc(C)cc1C)NC(=O)CNC(=O)c1cc(N)cc(C(F)(F)F)c1,7.70
8,CCC[C@H](O)[C@H](CNCc1ccc(C)cc1C)NC(=O)CC(=O)Nc1cc(N)cc(C(F)(F)F)c1,7.85
9,CCC[C@H](O)[C@H](CNCc1ccc(C)cc1C)NC(=O)CC(=O)Nc1cccc(C(F)(F)F)c1,7.09

# More lines, now with the values ahead:
row,pIC50,Compound
1,7.49,CCC[C@H](O)[C@H](CNCc1ccc(C)cc1C)NC(=O)CNC(=O)c1cc(C(F)(F)F)ccc1N
2,8.30,CCC[C@H](O)[C@H](CNCc1ccc(C)cc1C)NC(=O)CNC(=O)c1cc(C(F)(F)F)ccc1NC(=O)NC
3,7.62,CCC[C@H](O)[C@H](CNCc1ccc(C)cc1C)NC(=O)CNC(=O)c1cc(C(F)(F)F)ccc1NC(=O)NCC
4,7.48,CCC[C@H](O)[C@H](CNCc1ccc(C)cc1C)NC(=O)CNC(=O)c1cc(C(F)(F)F)ccc1NC(C)(C)C
5,8.05,CCC[C@H](O)[C@H](CNCc1ccc(C)cc1C)NC(=O)CNC(=O)c1cc(C(F)(F)F)ccc1NC(C)C
6,8.14,CCC[C@H](O)[C@H](CNCc1ccc(C)cc1C)NC(=O)CNC(=O)c1cc(C(F)(F)F)ccc1NCc1ccccc1
7,8.37,CCC[C@H](O)[C@H](CNCc1ccc(C)cc1C)NC(=O)CNC(=O)c1cc(C(F)(F)F)ccc1NC(=O)N1CCC1
8,7.77,CCC[C@H](O)[C@H](CNCc1ccc(C)cc1C)NC(=O)CNC(=O)c1cc(C(F)(F)F)ccc1NC(=O)OC(C)(C)C

# Experiment: Antagonist activity at CCR2 in mouse monocytes assessed as inhibition of MCP1-induced chemotaxis
row,pIC50,Compound
1,8.40,CCC[C@H](O)[C@H](CNCc1ccc(C)cc1C)NC(=O)CNC(=O)c1cc(C(F)(F)F)ccc1NC(=O)NCC
